For two compounds, IC50 results are on record in patent US9884043B2, “RORgammaT inhibitors” (Merck Sharp & Dohme Corp., priority 2011, dated 2018).

The structures appear in SMILES notation.

Broadly, the IC50 is the concentration that inhibits the measured activity by half. A high value points to weaker potency in that assay.

The target in the test is T1, HIS-tagged RORγ-LBD (Homo sapiens, UniProt P51449).
T1 construct: HIS-tagged RORγ-LBD was recombinantly expressed in SF9 cells using a baculovirus expression system; made in house; host or cells: SF9 cells, baculovirus; crude lysate used
T1 sequence (P51449 269-508 limits assumed): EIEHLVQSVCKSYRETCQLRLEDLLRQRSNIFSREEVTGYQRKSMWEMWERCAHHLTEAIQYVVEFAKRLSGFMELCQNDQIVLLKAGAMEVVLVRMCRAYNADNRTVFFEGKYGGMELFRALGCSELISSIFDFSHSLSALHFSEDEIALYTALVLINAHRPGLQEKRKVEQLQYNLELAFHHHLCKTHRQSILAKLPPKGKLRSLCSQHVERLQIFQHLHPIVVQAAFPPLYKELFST
Briefly: TR-FRET assay (Protocol C), purified RORγ-LBD / biotinylated SRC1 LXXLL peptide. Type of test: biochemical. Particulars: purified RORγ-LBD 3 nM, SRC1 peptide 100 nM, overnight at 4° C. The text has this:
Activation of RORgammaT activity can be measured using e.g. biochemical TR-FRET assay. In such an assay, interaction of cofactor-derived peptides with human RORgammaT-Ligand Binding Domain (LBD) can be measured. The TR-FRET technique is a sensitive biochemical proximity assay that will give information concerning the interaction of a ligand with the LBD, in the presence of cofactor derived peptides (Zhou et al., Methods 25:54-61, 2001).
To identify novel antagonists of RORgammaT, an assay was developed which employs the interaction of RORgammaT with its co-activator peptide SRC1_2. This peptide mimics the recruitment of co-activators to RORgammaT through its interaction with the LXXLL (SEQ ID NO:2) (eg NR box) motifs (Xie et al., J. Immunol. 175: 3800-09, 2005; Kurebayashi et al., Biochem. Biophys. Res. Commun. 315: 919-27, 2004; Jin et al., Mol. Endocrinology 24:923-29, 2010). The assay was run following three slightly different protocols, i.e. Protocol A, Protocol B, and Protocol C, which are described below.
TR-Fret Assay (Protocol C)
HIS-tagged RORγ-LBD protein was expressed in SF9 cells using a baculovirus expression system. The RORγ-LBD protein was purified by glutathione sepharose chromatography. Separately, SF9 cells not expressing any recombinant protein were lysed and the lysate was added to the purified RORγ-LBD at 0.25 μl lysate (from 10,000 SF9 cells)/nM purified protein. The mixture was then diluted in assay buffer (50 mM Tris pH 7.0, 50 mM KCl, 1 mM EDTA, 0.1 mM DTT) to obtain RORγ-LBD final concentration of 3 nM in 384-well assay plate.
Compounds to be tested were injected to the assay plate using Acoustic Droplet Ejection technology by Echo 550 liquid handler (Labcyte, Calif.). A stock of biotinylated-LXXLL (SEQ ID NO:2) peptide from coactivator SRC1 (Biotin-[…]) (SEQ ID NO: 1) was prepared in assay buffer and added to each well (100 nM final concentration). A solution of Europium tagged anti-HIS antibody (1.25 nM final concentration) and APC conjugated streptavidin (8 nM final concentration) were also added to each well.
The final assay mixture was incubated for overnight at 4° C., and the fluorescence signal was measured on an Envision plate reader: (Excitation filter=340 nm; APC emission=665 nm; Europium emission=615 nm; dichroic mirror=D400/D630; delay time=100 μs, integration time=200 μs). IC50 values for test compounds were calculated from the quotient of the fluorescence signal at 665 nm divided by the fluorescence signal at 615 nm.

With `COc1cccc(F)c1C(=O)n1nc(-c2ccc(C(=O)O)cc2F)c2cccc(F)c21` [Example 24AW, 3-fluoro-4-(7-fluoro-1-(2-fluoro-6-methoxybenzoyl)-1H-indazol-3-yl)benzoic acid], the half-maximal inhibitory concentration (IC50) was 50 to 500 nM.
In turn, `COCCN(C)C(=O)c1ccc2c(-c3ccc(C(=O)O)cc3F)nn(C(=O)c3c(Cl)cccc3C(F)(F)F)c2c1` [Example 25S, 4-(1-(2-chloro-6-(trifluoromethyl)benzoyl)-6-((2-methoxyethyl) (methyl)carbamoyl)-1H-indazol-3-yl)-3-fluorobenzoic acid] returned a half-inhibitory concentration (IC50) below 50 nM.
